The values below come from US6087355A, “Cephalosporin antibiotics” (Microcide Pharmaceuticals, Inc., priority 1996, dated 2000).

Counter-ions that a name gives are not always drawn.

What all share (assay): In vitro MIC, agar dilution
What all share (type): cell-based
In general terms: Agar dilution tests growth on a series of plates holding different concentrations.

The subject of test [1] is S. aureus Col(Meth^R)(lac^-). The note with it: Staphylococcus aureus, read-out: minimum inhibitory concentration (MIC). Here is the method:
(§1) The compounds of the invention were evaluated against several β-lactamresistant (for example methicillin-resistant, vancomycin resistant, and/or ampicillin-resistant) bacteria strains by determining the minimum inhibitory concentration (MIC, μg/ml) of each compound with respect to each strain. The MIC, the lowest concentration of antibiotic which inhibits growth of the test organism, was determined by the agar dilution method.
(§2) To determine the MIC for bacterial isolates, the test compound was incorporated in a series of two-fold dilutions into liquified Mueller-Hinton agar. Upon solidification, a number of different bacterial strains were spot inoculated with a replicating device onto the agar surface.
(§3) Aliquots of antimicrobial agents were prepared in phosphate buffered saline (PBS) at pH 7.2. Tween 20 or DMSO was used as a solubilizing vehicle as needed. Standard methods of vortexing, sonicating and gentle heat were used to facilitate solubilizing the test agent. […] A 1.28 mg/mL stock solution was used with a subsequent highest working concentration of 128 μg/mL. Serial two-fold dilutions were done through ≤0.25 μg/mL. Each drug level was tested in duplicate. Two-fold drug dilutions were done in sterile 50 mL tubes with a final drug volume of 5 mL. Upon the addition of 45 mL of molten agar, a 10-fold dilution resulted. Two, 25 mL. plates were then poured into 15×150 mm square Petri plates with grids and allowed to harden.
(§4) A control plate with a reference drug, either cefotaxime, vancomycin or imipenem, was used as the positive growth control. Stock concentrations of reference antibiotics were prepared and frozen at -80° C. […] All test plates were used within 24 hours of preparation.
(§5) Satisfactory results were obtained where the inoculum contained about 10^4 colony forming units (cfu)±0.5 logs. Starting with pure cultures of the test isolates on agar plates, a few isolated colonies were transferred to a tube of nutrient broth and allowed to grow 4-6 hours at 35-36° C. to reach log-phase growth. Dropwise addition of the broth culture to PBS was done to match a 0.5 McFarland turbidity standard equal to 10^8 cfu/mL. This was further diluted ten-fold in PBS to reach a working inoculum concentration of 10^7 cfu/mL. When 1 μL of the working inoculum was applied to the agar surface a concentration of about 10^4 cfu per spot was obtained.
(§6) Disposable sterile 1 μL loops were used to inoculate test plates, with each isolate in a designated grid on the agar plate. An alternate method of inoculation involved the use of a replica plater, a device with 48 steel pins allowing the simultaneous inoculation of multiple isolates. After the spots had dried, the plates were incubated at 35-36° C. for 16-20 hours. Endpoints were assessed as the minimum inhibitory concentration (MIC) of antimicrobial agent.
The S. aureus Col strain is a high-level PBP2a producer, whereas S. aureus Col 8A, its isogenic partner, lacks PBP2a.

In test [2] the test system is S. aureus 76(Meth^R)(lac^+). To be noted: Staphylococcus aureus, read-out: minimum inhibitory concentration (MIC). The protocol:
as §1, §2, §3, §4, §5, §6

The test system of test [3] is E. faecalis ATCC 29212. The note with it: Enterococcus faecalis, ATCC29212, read-out: minimum inhibitory concentration (MIC). The protocol: as §1, §2, §3, §4, §5, §6
The test system of test [4] is S. haemolyticus 05(Meth^R). To be noted: Staphylococcus haemolyticus, read-out: minimum inhibitory concentration (MIC). Here is the method:
as §1, §2, §3, §4, §5, §6

Test [5] deals with P. aeruginosa ATCC 27853. To be noted: Pseudomonas aeruginosa, ATCC27853, read-out: minimum inhibitory concentration (MIC). Here is the method: as §1, §2, §3, §4, §5, §6
The test system of test [6] is E. faecium ATCC 35667. The note with it: Enterococcus faecium, ATCC35667, read-out: minimum inhibitory concentration (MIC). The protocol:
as §1, §2, §3, §4, §5, §6

The subject of test [7] is E. faecium VanA(Van^R). The note with it: Enterococcus faecium, read-out: minimum inhibitory concentration (MIC). The protocol: as §1, §2, §3, §4, §5, §6
The subject of test [8] is S. aureus ATCC 29213. The note with it: Staphylococcus aureus, ATCC29213, read-out: minimum inhibitory concentration (MIC). The protocol:
as §1, §2, §3, §4, §5, §6

For test [9], the system named is E. coli ATCC 25992. To be noted: Escherichia coli, ATCC25992, read-out: minimum inhibitory concentration (MIC). The protocol: as §1, §2, §3, §4, §5, §6
In test [10] the test system is S. aureus ATCC 33593(Meth^R). To be noted: Staphylococcus aureus, ATCC33593, read-out: minimum inhibitory concentration (MIC). Here is the method: as §1, §2, §3, §4, §5, §6
Test [11] has as its system S. aureus PC1(Meth^S)(lac^+). The note with it: Staphylococcus aureus, read-out: minimum inhibitory concentration (MIC). Here is the method:
as §1, §2, §3, §4, §5, §6

The subject of test [12] is S. aureus ATCC 13709(Meth^S). The note with it: Staphylococcus aureus, ATCC13709, S. aureus ATCC 13709(Meth^S); read-out: minimum inhibitory concentration (MIC). The protocol:
as §1, §2, §3, §4, §5, §6

Test [13] relates to S. aureus Spain #356(Meth^R). The note with it: Staphylococcus aureus, read-out: minimum inhibitory concentration (MIC). The protocol: as §1, §2, §3, §4, §5, §6
Test [14] relates to E. faecium A491(Amp^R). The note with it: Enterococcus faecium, read-out: minimum inhibitory concentration (MIC). Here is the method: as §1, §2, §3, §4, §5, §6
Test [15] relates to E. faecalis VanB(Van^R). The note with it: Enterococcus faecalis, read-out: minimum inhibitory concentration (MIC). Here is the method:
as §1, §2, §3, §4, §5, §6

Consider `NCCSc1cnccc1SC1=C(C(=O)O)N2C(=O)[C@@H](NC(=O)/C(=N\O)c3csc(N)n3)[C@H]2SC1` [Cmpd 20, (7R)-7-[(Z)-2-(aminothiazol-4-yl)-2-(hydroxyimino)acetamido]-3-(3-aminoethylthiopyrid-4-ylthio)-3-cephem-4-carboxylate, trifluoroacetic acid salt], for which the MIC is 2 µg/mL in test [1]; 4 µg/mL in test [2]; 1 µg/mL in [3]; 4 µg/mL in test [4]; over 32 µg/mL in test [5]; 1 µg/mL in [6]. The MIC in test [7] is 2 µg/mL; in test [8], 0.5 µg/mL; in test [9], 4 µg/mL; in test [10] it was 2 µg/mL; in test [11] it was 0.5 µg/mL; in test [12] it was 0.5 µg/mL. For the same compound, the results for the MIC in test [13], in test [14] and in test [15] were 4 µg/mL, over 32 µg/mL and 0.5 µg/mL, respectively.

Turning to `N=C(N)SCc1cnccc1SC1=C(C(=O)O)N2C(=O)[C@@H](NC(=O)/C(=N\OC3CCCC3)c3csc(N)n3)[C@H]2SC1` [Cmpd 8, (7R)-7-[(Z)-2-(aminothiazol-4-yl)-2-(cyclopentyloxyimino)acetamido]-3-(3-isothioureidomethylpyrid-4-ylthio)-3-cephem-4-carboxylate, trifluoroacetic acid salt], the MIC in [1] is 2 µg/mL; in test [2], 4 µg/mL; in [3], 0.5 µg/mL; in test [4] it was 4 µg/mL; in [5] it was over 32 µg/mL; in test [6], 2 µg/mL. The MIC amounted to 8 µg/mL in test [7]; 1 µg/mL in [8]; 2 µg/mL in test [9]; 4 µg/mL in test [10]; 1 µg/mL in [11]; 1 µg/mL in test [12]. The MIC in test [13] was 4 µg/mL; in [14] it was 32 µg/mL; in test [15], 0.5 µg/mL.

As for `CNCCSCc1cnccc1SC1=C(C(=O)O)N2C(=O)[C@@H](NC(=O)/C(=N\O)c3nc(N)sc3Cl)[C@H]2SC1` [Cmpd 41, (7R)-7-[(Z)-2-(2-amino-5-chlorothiazol-4-yl)-2-(hydroxyimino)acetamido]-3-(3-(2-N-methylaminoethylthiomethyl)pyrid-4-ylthio)-3-cephem-4-carboxylate, trifluoroacetic acid salt], the MIC in test [1] was 1 µg/mL; in [2], 1 µg/mL; in [3] it was at most 0.06 µg/mL; in [4] it was 1 µg/mL; in test [5], 32 µg/mL; in [6], 0.25 µg/mL. The MIC in [7] amounted to 1 µg/mL; in test [8], 0.13 µg/mL; in [9], 4 µg/mL; in [10], 1 µg/mL; in [11], 0.25 µg/mL; in [12], 0.13 µg/mL. The MIC in [13] was 1 µg/mL; in [14] it was 8 µg/mL; in [15] it was at most 0.06 µg/mL.

Regarding `NCC#CCc1cnccc1SC1=C(C(=O)O)N2C(=O)[C@@H](NC(=O)/C(=N\O)c3nc(N)sc3Cl)[C@H]2SC1` [Cmpd 48, (7R)-7-[(Z)-2-(2-amino-5-chlorothiazol-4-yl)-2-(hydroxyimino)acetamido]-3-(3-(4-amino-2-butyn-1-yl)pyrid-4-ylthio)-3-cephem-4-carboxylate, trifluoroacetic acid salt], the MIC in [1] is 4 µg/mL; in test [2] it was 8 µg/mL; in test [3], 0.25 µg/mL; in test [4] it was 16 µg/mL; in [5], over 32 µg/mL; in [6] it was 1 µg/mL. The MIC in test [7] stood at 4 µg/mL; in [8], 0.5 µg/mL; in test [9], 4 µg/mL; in test [10], 4 µg/mL; in test [11] it was 0.5 µg/mL; in [12] it was 0.25 µg/mL. For the same compound, the MIC in test [13] is 8 µg/mL; in test [14], 32 µg/mL; in test [15], 0.5 µg/mL.

In the case of `N=C(N)SCc1cnccc1SC1=C(C(=O)O)N2C(=O)[C@@H](NC(=O)/C(=N\O)c3nc(N)sc3Cl)[C@H]2SC1` [Cmpd 60, (7R)-7-[(Z)-2-(2-amino-5-chlorothiazol-4-yl)-2-(hydroxyimino)acetamido]-3-(3-isothioureidomethylpyrid-4-ylthio)-3-cephem-4-carboxylate, trifluoroacetic acid salt], the MIC in test [1] is 2 µg/mL; in test [2], 1 µg/mL; in [3], 0.5 µg/mL; in test [4], 4 µg/mL; in test [5] it was over 32 µg/mL; in test [6] it was 1 µg/mL. Further, the MIC in test [7] came to 2 µg/mL; in test [8], 0.25 µg/mL; in [9] it was 8 µg/mL; in test [10], 2 µg/mL; in [11] it was 0.25 µg/mL; in test [12], 0.13 µg/mL. The MIC in test [13] turned out to be 2 µg/mL; in test [14], 16 µg/mL; in test [15], 0.25 µg/mL.

With `NCC(=O)NCCSCc1cnccc1SC1=C(C(=O)O)N2C(=O)[C@@H](NC(=O)/C(=N\O)c3csc(N)n3)[C@H]2SC1` [Cmpd 24, (7R)-7-[(Z)-2-(aminothiazol-4-yl)-2-(hydroxyimino)acetamido]-3-[3-(glycyl)aminoethylthiomethylpyrid-4-ylthio]-3-cephem-4-carboxylate, trifluoroacetic acid salt], the MIC in [1] was 8 µg/mL; in test [2], 8 µg/mL; in [3] it was 0.25 µg/mL; in [4], 8 µg/mL; in [5], over 32 µg/mL; in test [6], 2 µg/mL. Besides, the MIC in test [7] turned out to be 4 µg/mL; in test [8], 1 µg/mL; in [9], 8 µg/mL; in [10] it was 4 µg/mL; in test [11], 1 µg/mL; in [12] it was 1 µg/mL. For the same compound, the MIC is 4 µg/mL in [13], over 32 µg/mL in test [14] and 0.5 µg/mL in test [15].

With `NCCSCc1cnccc1SC1=C(C(=O)O)N2C(=O)[C@@H](NC(=O)/C(=N\OCCF)c3csc(N)n3)[C@H]2SC1` [Cmpd 23, (7R)-7-[(Z)-2-(aminothiazol-4-yl)-2-(2-fluoroethoxyimino)acetamido]-3-(3-aminoethylthiomethylpyrid-4-ylthio)-3-cephem-4-carboxylate, trifluoroacetic acid salt], the MIC in [1] was 2 µg/mL; in [2], 4 µg/mL; in test [3] it was 0.5 µg/mL; in test [4] it was 4 µg/mL; in [5], over 32 µg/mL; in test [6] it was 2 µg/mL. Further, the MIC in test [7] is 4 µg/mL; in test [8] it was 1 µg/mL; in test [9], 2 µg/mL; in test [10] it was 4 µg/mL; in test [11], 0.5 µg/mL; in test [12] it was 0.5 µg/mL. Moreover, the MIC in test [13] was 4 µg/mL; in test [14], over 32 µg/mL; in [15] it was 1 µg/mL.
